Data published in patent US12257264B2, “Combination therapy for HIV with adenosine derivative and capsid inhibitors” (Brii Biosciences, Inc., priority 2021, dated 2025).
“And” between values parts separate entries of the source, which are not always exact repeats. Identical values can stand only once.

Assay: Plasma exposures following IV infusion alone or in combination to Sprague-Dawley rats
Conditions: for Lenacapavir Concentrations in Rat Plasma When Dosed with Prodrug formula 4-A: Lenacapavir IV infusion 1.0 mg/kg with Prodrug formula 4-A
Protocol: The pharmacokinetics of EFdA and prodrug formula 4-A, as well as lenacapavir were studied in rats after IV infusion administration alone or in combination at a dose of 1.0 mg/kg each.
Formulations: The prodrugs and lenacapavir were formulated alone or in combination as solutions at 1.0 mg/mL each in 20% […], 10% Solutol aqueous solution within 0.5 hour prior to dose.
Dose Administration and Sample Collection: The in-life phase of this study was conducted at the WuXi Apptec (WuXi) at Shanghai, China in accordance with the WuXi Institutional Animal Care and Use Committee (IACUC) standard animal procedures along with the IACUC guidelines that are in compliance with the Animal Welfare Act, the Guide for the Care and Use of Laboratory Animals. and was approved by the IACUA Committee. Male Sprague-Dawley rats (0.262+/−0.019 kg) were used for the studies. Each drug was administered as a single dose by 30-min IV infusion (1 ml/kg) alone or in combination. Plasma samples were collected at 0 (pre-dose), 5, 10, 15 and 30 min, 1, 2, 4, 7, 12 and 24 h post-dose. Blood (approximately 0.1 mL) was processed immediately for plasma by centrifugation at 3,200 g at 4° C. for 10 min within half an hour of collection. Plasma samples were frozen and maintained at −70° C. until analyzed. To stabilize the prodrug at the sample collection and subsequent analysis, the following stabilizing reagents were added to the blood collection K2EDTA tubes on wet ice prior to sample collection: for each 100 mL of blood, 10 mL of premade inhibitor cocktail consists of 600 mM Citric Acid, 400 mM PMSF, 400 mM NaF, and 400 mM Dichlorvos.
Determination of EFdA and Prodrugs in plasma: Briefly, plasma (20 μL) was mixed with 100 l acetonitrile to precipitate protein. Consistent with sample collection procedure, the same cocktail protocol was also added to stabilize the prodrug in the standard and QC samples.
Bioanalysis: A Sciex API-6500 Plus triplequadrupole mass spectrometer coupled with a Waters Acquity UPLC system (Framingham, MA 01701) was used for quantitative analysis of plasma samples. The column was a Waters HSS T3 column (2.1×50 mm, 1.8 micrometer). The mobile phases used were: A, 0.1% formic acid in water; B, 0.1% formic acid in acetonitrile. For the analysis of EFdA and prodrugs in plasma, the flow rate was 0.6 mL/min with a total run time of 2.0 min. […] Detection of the prodrug and EFdA were achieved using positive ion electrospray mass spectroscopic mode using unit resolution mode. Multiple reaction monitoring (MRM) modes were used to quantify both prodrug and EFdA, e.g. the MRM transition for EFdA was 294.0-154.2 Da, and the transition for prodrug 4-A was 449.3-164.9 Da. For the analysis of lenacapavir in plasma, the flow rate was 0.7 mL/min with a total run time of 1.5 min. The HPLC gradient was initiated at 95% A/5% B for 0.50 min, followed by linear gradient increase to […] over the next 0.2 min; the gradient was subsequently maintained at 100% of mobile B over the next 0.7 min before ramping down to 95% mobile phase A within the following 0.1 min. Detection of lenacapavir was achieved using positive ion electrospray mass spectroscopic mode using unit resolution mode. Multiple reaction monitoring (MRM) modes were used to quantify lenacapavir, e.g. the MRM transition for lenacapavir was 968.1-869.4 Da. Peak areas were integrated by the Sciex program Analyst®, version 1.6.3, operating on a Windows 7 computer where concentrations were determined by a weighted (1/x2) linear regression of peak area ratios (peak area of EFdA/peak area of corresponding IS) versus the nominal concentrations of the plasma calibration standards. Calculations were performed on unrounded numbers. Overall, Analyst® determined the precision and accuracy for the calibration standards and QC samples.

CC(C)(C#Cc1ccc(-c2ccc(Cl)c3c(NS(C)(=O)=O)nn(CC(F)(F)F)c23)c([C@H](Cc2cc(F)cc(F)c2)NC(=O)Cn2nc(C(F)(F)F)c3c2C(F)(F)[C@@H]2C[C@H]32)n1)S(C)(=O)=O [Lenacapavir, reference compound]
Lenacapavir Concentrations in Rat Plasma When Dosed Alone (Lenacapavir IV infusion 1.0 mg/kg alone, 0.0830 hrs, individual animals): 485 ng/mL and 603 ng/mL and 667 ng/mL
Lenacapavir Concentrations in Rat Plasma When Dosed Alone (Lenacapavir IV infusion 1.0 mg/kg alone, 0.167 hrs, individual animals): 845 ng/mL and 682 ng/mL and 734 ng/mL
Lenacapavir Concentrations in Rat Plasma When Dosed Alone (Lenacapavir IV infusion 1.0 mg/kg alone, 0.250 hrs, individual animals): 810 ng/mL and 801 ng/mL and 894 ng/mL
Lenacapavir Concentrations in Rat Plasma When Dosed Alone (Lenacapavir IV infusion 1.0 mg/kg alone, 0.500 hrs, individual animals): 612 ng/mL and 580 ng/mL and 984 ng/mL
Lenacapavir Concentrations in Rat Plasma When Dosed Alone (Lenacapavir IV infusion 1.0 mg/kg alone, 1.00 hrs, individual animals): 166 ng/mL and 222 ng/mL and 240 ng/mL
Lenacapavir Concentrations in Rat Plasma When Dosed Alone (Lenacapavir IV infusion 1.0 mg/kg alone, 2.00 hrs, individual animals): 104 ng/mL and 149 ng/mL and 164 ng/mL
Lenacapavir Concentrations in Rat Plasma When Dosed Alone (Lenacapavir IV infusion 1.0 mg/kg alone, 4.00 hrs, individual animals): 102 ng/mL and 157 ng/mL and 195 ng/mL
Lenacapavir Concentrations in Rat Plasma When Dosed Alone (Lenacapavir IV infusion 1.0 mg/kg alone, 7.00 hrs, individual animals): 185 ng/mL and 84.6 ng/mL and 141 ng/mL and 142 ng/mL
Lenacapavir Concentrations in Rat Plasma When Dosed Alone (Lenacapavir IV infusion 1.0 mg/kg alone, 12.0 hrs, individual animals): 79.4 ng/mL and 106 ng/mL and 139 ng/mL
Lenacapavir Concentrations in Rat Plasma When Dosed Alone (Lenacapavir IV infusion 1.0 mg/kg alone, 24.0 hrs, individual animals): 123 ng/mL and 141 ng/mL and 139 ng/mL
Lenacapavir Concentrations in Rat Plasma When Dosed Alone (Lenacapavir IV infusion 1.0 mg/kg alone, 72.0 hrs, individual animals): 51.3 ng/mL and 59.7 ng/mL and 57.2 ng/mL and 110 ng/mL
Lenacapavir Concentrations in Rat Plasma When Dosed with Prodrug formula 4-A (0.0830 hrs, individual animals): 460 ng/mL and 391 ng/mL and 314 ng/mL
Lenacapavir Concentrations in Rat Plasma When Dosed with Prodrug formula 4-A (0.167 hrs, individual animals): 479 ng/mL and 589 ng/mL and 415 ng/mL
Lenacapavir Concentrations in Rat Plasma When Dosed with Prodrug formula 4-A (0.250 hrs, individual animals): 623 ng/mL and 664 ng/mL and 375 ng/mL
Lenacapavir Concentrations in Rat Plasma When Dosed with Prodrug formula 4-A (0.500 hrs, individual animals): 643 ng/mL and 714 ng/mL and 448 ng/mL
Lenacapavir Concentrations in Rat Plasma When Dosed with Prodrug formula 4-A (1.00 hrs, individual animals): 170 ng/mL (2×) and 107 ng/mL
Lenacapavir Concentrations in Rat Plasma When Dosed with Prodrug formula 4-A (2.00 hrs, individual animals): 135 ng/mL and 105 ng/mL and 94.7 ng/mL
Lenacapavir Concentrations in Rat Plasma When Dosed with Prodrug formula 4-A (4.00 hrs, individual animals): 93.1 ng/mL and 101 ng/mL and 80.9 ng/mL
Lenacapavir Concentrations in Rat Plasma When Dosed with Prodrug formula 4-A (7.00 hrs, individual animals): 140 ng/mL and 101 ng/mL and 72.3 ng/mL and 58.8 ng/mL
Lenacapavir Concentrations in Rat Plasma When Dosed with Prodrug formula 4-A (12.0 hrs, individual animals): 139 ng/mL and 137 ng/mL and 158 ng/mL and 78.6 ng/mL
Lenacapavir Concentrations in Rat Plasma When Dosed with Prodrug formula 4-A (24.0 hrs, individual animals): 129 ng/mL and 164 ng/mL and 176 ng/mL and 62.5 ng/mL
Lenacapavir Concentrations in Rat Plasma When Dosed with Prodrug formula 4-A (72.0 hrs, individual animals): 40.1 ng/mL and 97.8 ng/mL and 97.2 ng/mL and 98.0 ng/mL
concentration at 48 h (male, Sprague-Dawley, rat, in vivo, 1 mg/kg, Lenacapavir Concentrations in Rat Plasma When Dosed Alone): 107 ng/mL
concentration at 0.083 h (male, Sprague-Dawley, rat, in vivo, 1 mg/kg, Lenacapavir Concentrations in Rat Plasma When Dosed Alone, Lenacapavir IV infusion 1.0 mg/kg alone, 0.0830 hrs, Mean): 612 ng/mL
concentration at 0.083 h (male, Sprague-Dawley, rat, in vivo, 1 mg/kg, Lenacapavir Concentrations in Rat Plasma When Dosed Alone, Lenacapavir IV infusion 1.0 mg/kg alone, 0.0830 hrs, individual animals): 692 ng/mL
concentration at 0.167 h (male, Sprague-Dawley, rat, in vivo, 1 mg/kg, Lenacapavir Concentrations in Rat Plasma When Dosed Alone, Lenacapavir IV infusion 1.0 mg/kg alone, 0.167 hrs, Mean): 739 ng/mL
concentration at 0.167 h (male, Sprague-Dawley, rat, in vivo, 1 mg/kg, Lenacapavir Concentrations in Rat Plasma When Dosed Alone, Lenacapavir IV infusion 1.0 mg/kg alone, 0.167 hrs, individual animals): 694 ng/mL
concentration at 0.25 h (male, Sprague-Dawley, rat, in vivo, 1 mg/kg, Lenacapavir Concentrations in Rat Plasma When Dosed Alone, Lenacapavir IV infusion 1.0 mg/kg alone, 0.250 hrs, Mean): 825 ng/mL
